# Assays:
# Assay type in all cases: cell-based, S. cerevisiae
# Details in all cases: 1 uM small molecule, difference to activity without small molecule, average of two trials
# [1] = molecular target: T1, LexA (GSG)2eDHFR / B42 gly6rGR2 (UniProt P06536+P0ABQ4, C656G/F620S); test: β-galactosidase activity assay, strain V499Y
# T1 construct: rat Glucocorticoid Receptor (aa 524-795) with point mutations; expressed in transfected cells; host or cells: S. cerevisiae FY250
# T1 sequence (P0ABQ4 1-159): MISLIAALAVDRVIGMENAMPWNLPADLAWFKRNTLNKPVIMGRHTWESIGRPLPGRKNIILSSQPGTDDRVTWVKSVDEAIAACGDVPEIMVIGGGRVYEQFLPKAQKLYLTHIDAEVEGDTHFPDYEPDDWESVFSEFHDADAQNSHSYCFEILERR
# T1 sequence (P06536 524-795 F620S/C656G limits assumed): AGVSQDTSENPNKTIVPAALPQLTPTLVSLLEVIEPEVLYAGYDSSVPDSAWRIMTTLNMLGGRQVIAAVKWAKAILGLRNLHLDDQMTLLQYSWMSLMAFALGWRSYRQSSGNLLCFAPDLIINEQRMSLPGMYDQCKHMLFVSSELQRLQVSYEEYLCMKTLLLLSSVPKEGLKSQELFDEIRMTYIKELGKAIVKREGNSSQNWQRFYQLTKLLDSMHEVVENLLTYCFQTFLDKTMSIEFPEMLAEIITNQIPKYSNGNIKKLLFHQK
# Excerpt: (§1) Table III explains the components of each strain. Each strain was constructed from the parent yeast strain FY250 and also contains the pMW106 plasmid, which has the LacZ reporter gene that is turned on only in when the LexA DNA binding domain and the B42 activation are brought in tot he vicinity of each other. We use several different strains because we use DHFR from two different species, mDHFR is from murine, while eDHFR is from E. coli. We are asl oable to switch the small moleculebinding domains. For example, the strain containing LexA-eDHFR with B42-rGH2 is a different strain and behaves differently from the strain containing LexA-rGR2 with B42-eDHFR. We also put in short 6 amino acid linkers between the two domains of our protein chimeras and thus these are different strain as well.
# (§2) The results in Table IV are averages of two separate trials. Each strain was examined with small molecules and without small molecules. The absolute activity is given as the β-galactisidase activity […]. The average β-galactosidse activity for a strain without small molecule (i.e. the negative control) was about 100 β-galactosidase units.
# [2] = molecular target: T2, LexA mDHFR / B42 (GSG)rGR2 (UniProt P00375+P06536, C656G/F620S); test: β-galactosidase activity assay, strain V497Y
# T2 construct: rat Glucocorticoid Receptor (aa 524-795) with point mutations; expressed in transfected cells; host or cells: S. cerevisiae FY250
# T2 sequence (P00375 1-187): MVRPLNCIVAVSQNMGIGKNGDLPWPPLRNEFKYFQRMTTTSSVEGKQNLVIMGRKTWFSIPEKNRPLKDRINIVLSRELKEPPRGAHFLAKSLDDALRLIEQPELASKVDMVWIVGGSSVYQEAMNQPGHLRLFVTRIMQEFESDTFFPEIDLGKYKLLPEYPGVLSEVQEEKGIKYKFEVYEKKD
# T2 sequence (P06536 524-795 F620S/C656G limits assumed): T1 sequence (P06536 524-795 F620S/C656G limits assumed)
# Excerpt: as §1, §2
# LexA rGR2 / B42 eDHFR = molecular target: T3, LexA rGR2 / B42 eDHFR (UniProt P06536+P0ABQ4, C656G/F620S); test: β-galactosidase activity assay, strain V505Y
# T3 construct: rat Glucocorticoid Receptor (aa 524-795) with point mutations; expressed in transfected cells; host or cells: S. cerevisiae FY250
# T3 sequence (P06536 524-795 F620S/C656G limits assumed): T1 sequence (P06536 524-795 F620S/C656G limits assumed)
# T3 sequence (P0ABQ4 1-159): T1 sequence (P0ABQ4 1-159)
# Excerpt: as §1, §2
# [3] = molecular target: T4, LexA mDHFR / B42 gly6rGR2 (UniProt P00375+P06536, C656G/F620S); test: β-galactosidase activity assay, strain V496Y
# T4 construct: rat Glucocorticoid Receptor (aa 524-795) with point mutations; expressed in transfected cells; host or cells: S. cerevisiae FY250
# T4 sequence (P00375 1-187): T2 sequence (P00375 1-187)
# T4 sequence (P06536 524-795 F620S/C656G limits assumed): T1 sequence (P06536 524-795 F620S/C656G limits assumed)
# Excerpt: as §1, §2
# [4] = molecular target: T5, LexA eDHFR / B42 (GSG)rGR2 (UniProt P06536+P0ABQ4, C656G/F620S); test: β-galactosidase activity assay, strain V494Y
# T5 construct: rat Glucocorticoid Receptor (aa 524-795) with point mutations; expressed in transfected cells; host or cells: S. cerevisiae FY250
# T5 sequence (P0ABQ4 1-159): T1 sequence (P0ABQ4 1-159)
# T5 sequence (P06536 524-795 F620S/C656G limits assumed): T1 sequence (P06536 524-795 F620S/C656G limits assumed)
# Excerpt: as §1, §2
# [5] = molecular target: T6, LexA rGR2 / B42 (GSG)2eDHFR (UniProt P06536+P0ABQ4, C656G/F620S); test: β-galactosidase activity assay, strain V509Y
# T6 construct: expressed in transfected cells; host or cells: S. cerevisiae FY250 with pMW106 lacZ reporter
# T6 sequence (P06536 524-795 F620S/C656G limits assumed): T1 sequence (P06536 524-795 F620S/C656G limits assumed)
# T6 sequence (P0ABQ4 1-159): T1 sequence (P0ABQ4 1-159)
# Excerpt: as §1, §2
# [6] = molecular target: T7, LexA (GSG)2eDHFR / B42 (GSG)rGR2 (UniProt P06536+P0ABQ4, C656G/F620S); test: β-galactosidase activity assay, strain V501Y
# T7 construct: rat Glucocorticoid Receptor (aa 524-795) with point mutations; expressed in transfected cells; host or cells: S. cerevisiae FY250
# T7 sequence (P0ABQ4 1-159): T1 sequence (P0ABQ4 1-159)
# T7 sequence (P06536 524-795 F620S/C656G limits assumed): T1 sequence (P06536 524-795 F620S/C656G limits assumed)
# Excerpt: as §1, §2
# [7] = molecular target: T8, LexA (GSG)2rGR2 / B42 mDHFR (UniProt P00375+P06536, C656G/F620S); test: β-galactosidase activity assay, strain V508Y
# T8 construct: expressed in transfected cells; host or cells: S. cerevisiae FY250 with pMW106 lacZ reporter
# T8 sequence (P06536 524-795 F620S/C656G limits assumed): T1 sequence (P06536 524-795 F620S/C656G limits assumed)
# T8 sequence (P00375 1-187): T2 sequence (P00375 1-187)
# Excerpt: as §1, §2
# LexA rGR2 / B42 mDHFR = molecular target: T9, LexA rGR2 / B42 mDHFR (UniProt P00375+P06536, C656G/F620S); test: β-galactosidase activity assay, strain V507Y
# T9 construct: rat Glucocorticoid Receptor (aa 524-795) with point mutations; expressed in transfected cells; host or cells: S. cerevisiae FY250
# T9 sequence (P06536 524-795 F620S/C656G limits assumed): T1 sequence (P06536 524-795 F620S/C656G limits assumed)
# T9 sequence (P00375 1-187): T2 sequence (P00375 1-187)
# Excerpt: as §1, §2
# LexA mDHFR / B42 rGR2 = molecular target: T10, LexA mDHFR / B42 rGR2 (UniProt P00375+P06536, C656G/F620S); test: β-galactosidase activity assay, strain V495Y
# T10 construct: rat Glucocorticoid Receptor (aa 524-795) with point mutations; expressed in transfected cells; host or cells: S. cerevisiae FY250
# T10 sequence (P00375 1-187): T2 sequence (P00375 1-187)
# T10 sequence (P06536 524-795 F620S/C656G limits assumed): T1 sequence (P06536 524-795 F620S/C656G limits assumed)
# Excerpt: as §1, §2
smiles,measurement,setting,value
C[C@@H]1C[C@H]2C3CCC4=CC(=O)C=C[C@]4(C)[C@@]3(F)[C@@H](O)C[C@]2(C)[C@@]1(O)C(=O)NCCSCCCCCCCCCCSCC[C@H](NC(=O)c1ccc(N(C)Cc2cnc3nc(N)nc(N)c3n2)cc1)C(=O)O (stereo partly shown) [D10M],B-gal activity,[1],4013 β-galactosidase units
same,B-gal activity,[2],308 β-galactosidase units
same,B-gal activity,LexA rGR2 / B42 eDHFR,1160 β-galactosidase units
same,B-gal activity,[3],740 β-galactosidase units
same,B-gal activity,[4],9398 β-galactosidase units
same,B-gal activity,[5],2028 β-galactosidase units
same,B-gal activity,[6],2286 β-galactosidase units
same,B-gal activity,[7],5 β-galactosidase units
same,B-gal activity,LexA rGR2 / B42 mDHFR,−14 β-galactosidase units
same,B-gal activity,LexA mDHFR / B42 rGR2,513 β-galactosidase units
